Data taken from paper PMC4349623 (BMC Biochemistry, 2015).

Experiments:
CaM = assay: Stern-Volmer quenching of CaM-bound ANS by acrylamide
Excerpt: Given that steady state fluorescence cannot differentiate the intensity contribution from individual ANS molecules, we utilized time-correlated single-photon counting (TCSPC) spectrometry to measure the ANS fluorescence decay. […] The data was best fit with a three-exponential-decay function. The shortest lifetime (τ3 = ~0.3 ns) was assigned to that of free ANS molecules, which was confirmed by using an ANS solution alone. Note that this lifetime reaches the detection limitation of our instrument and therefore, it cannot be determined precisely. […] The fitting also provided the fractional (or relative amplitude), fs, which weights the “amount” of the emitting species, and the normalized pre-exponential value, Bs, which provides the relative concentration of each species. […] In other words, the long lifetime component of ANS is one order less quenched by acrylamide.
For a quenching that is purely by collision, the steady-state and lifetime Stern-Volmer quenching equation can be expressed as4 <τo>/<τ>=1+KsvQandKsv=kqxτ0 where τ and τo are the lifetime in the presence and absence of the quencher, and kq is the quenching rate constant.

[1] = ANS steady-state fluorescence (hydrophobicity probe); format: biochemical; details: for ANS fold enhancement: pH 7.5, 0.1 M NaCl, 2 mM Ca^2+
Excerpt: It is well known that the exposure of the hydrophobic patches of CaM is essential for target protein recognition. Such hydrophobic exposure can be photometrically monitored by its interaction with extrinsic 1-anilinonaphthalene 8-sulfonate (ANS) and 2-p-toluidinyl-naphthalene-6-sulfonate (TNS) molecules. These two fluorophores have been widely used as a probe for measuring hydrophobicity. ANS is a fluorescent dye which emits very weak fluorescence in water due to its excited charge transfer (CT) state that is quenched easily by water molecules. […] ANS fluorescence increases dramatically in a hydrophobic environment or when the rotational motion of its phenylamino group is restricted. […] The fluorescence increased when Ca^2+ was included in the mixture.
ANS fluorescence was excited at 350 nm.
Absorption measurements were carried out using a UV-1800 double-beam spectrometer (Shimadzu, Kyoto, Japan). The fluorescence spectra were recorded on a FluoroMax-3P (Horiba Scientific) equipped with a temperature control unit. For intrinsic Trp fluorescence, the excitation wavelength of 295 nm was chosen. […] The samples containing ANS or dansyl-labeled proteins were excited at 350 and 370 nm, respectively. The slit widths of 2 and 5 nm were typically chosen for excitation and emission, respectively, to eliminate photobleaching.

[2] = ANS binding by isothermal titration calorimetry; details: 30 mM Hepes, 25°C
Excerpt: The heat evolved is proportional to the amount of the ANS/Ca^2+-CaM complex formation. […] We fit the data with “one set of sites” to obtain the apparent association binding constant (Kapp) of 2.10 ± 0.11 × 10^3 M^−1 for Ca^2+-CaM (Table 1), consistent with a previous report. […] Based on our studies, the middle point from the ITC thermogram (and the inflection point in the corresponding derived binding isotherm) indicates approximately 4–6 bound-ANS molecules in Ca^2+-CaM. Therefore, Kapp is proportional to the actual number of protein-bound ANS molecules in the experimental condition. In the text below, we will discuss Kapp as the ANS binding affinity for simplicity.
The ITC data were fit with a “one set of sites” model as described in the Experimental section.
The ITC experiments were carried out on a VP-ITC (GE, Pittsburgh, PA). Protein samples were buffer-exchanged to the desired buffer. Peptide concentration was prepared by adding buffer to the peptide powder as measured by weight. All samples were degassed 15–30 min before loading. To avoid buffer mismatch, the syringe and sample cells were rinsed with the desired buffer prior to sample loading. A typical titration was performed by sequential injections every 120–180 sec of 5–10 μL solution at 25°C. The ITC raw data was corrected for the heat of titrant dilution determined by an experiment conducted in identical conditions except that no protein was contained in the sample cell. The corrected data, after integration of heat evolved, was fitted with Origin software provided by the manufacturer to determine Ka and the observed or apparent ΔH (ΔHapp).

[3] = Far-UV circular dichroism; details: Ca^2+-bound, 0.1 mg/ml protein, 10 mM Tris, pH 7.5
Procedure: The CD spectra were recorded in a JASCO J-715 instrument (JASCO Corporation, Japan) equipped with a temperature control unit. CD spectra were recorded using a cylindrical 0.1 cm path length quartz curvet and were shown as the average of 3–6 scans using a spectra bandwidth of 1.0 nm. In all measurements, 0.1 mg/ml proteins in 10 mM Tris, pH 7.5 with 1–2 mM Ca^2+ or 0.5 mM EDTA were scanned from 190 nm to 260 nm.

dansyl-labeled CaM(1TnC) = assay: stopped-flow fluorescence (dissociation chase); 5 uM dansyl-labeled CaM or chimera with 15 uM Orai-CMBD, 2 mM Ca2+, mixed with 75 uM unlabeled CaM, 2 mM Ca2+; dansyl fluorescence decay (excitation 370 nm), single exponential fit
[4] = target: CaM(1TnC): domain 1 of TnC and domains 2, 3 and 4 of CaM; assay: ITC; 1 mM Orai-CMBD titrated into 30 uM CaM or chimera; 10 mM Tris, pH 7.5, 0.1 M NaCl, 2 mM Ca2+, 25°C; 'one set of sites' or two sequential binding sites model
Ca^2+-ATPase = details: ref [13]; cited from earlier work
Excerpt: (§1) Given the structural similarities and functional differences of CaM an ...

nNOS = details: ref [12]; cited from earlier work
Excerpt: as §1

[5] = no reference given; cited from earlier work
Excerpt: as §1

[6] = ref [13]; cited from earlier work
Excerpt: It is well known that the exposure of the hydrophobic patches of CaM is essential for target protein recognition. Such hydrophobic exposure can be photometrically monitored by its interaction with extrinsic 1-anilinonaphthalene 8-sulfonate (ANS) and 2-p-toluidinyl-naphthalene-6-sulfonate (TNS) molecules. These two fluorophores have been widely used as a probe for measuring hydrophobicity. ANS is a fluorescent dye which emits very weak fluorescence in water due to its excited charge transfer (CT) state that is quenched easily by water molecules.

For `O=S(=O)(O)c1cccc2cccc(Nc3ccccc3)c12` [ANS, 1-anilinonaphthalene 8-sulfonate], the “kq (quenching rate constant), short lifetime” value (CaM; τ1 ANS) was 2.2e+08 M⁻¹ s⁻¹ and the “kq (quenching rate constant), τ2” value (CaM; τ2 ANS) was 1.9e+07 M⁻¹ s⁻¹.

In the case of Calmodulin [CaM], the “increase of ANS fluorescence intensity on Orai-CMBD binding” value ([1]; Ca^2+-bound protein) was ~ 10%, the ANS fluorescence change ([1]; absence of Ca^2+) was “exhibited no change” and the ANS enhancement ([1]; in the absence of salt, 30 mM Hepes, pH 7.5, 2 mM Ca^2+, spectra integration vs apo protein, at least three repeats, three protein batches) was 3.01 ± 0.12 fold. The ANS fold enhancement ([1]; in the presence of salt and Orai-CMBD, 30 mM Hepes, vs apo protein) was 3.87 ± 0.10 fold, the ANS fold enhancement ([1]; in the presence of salt, 30 mM Hepes, spectra integration vs apo protein) was 3.49 ± 0.07 fold and the K app ([2]; in the absence of salt, pH 7.5, 2 mM Ca^2+, apparent association constant, one set of sites) was 2.10 ± 0.11 × 10^3 M^−1. The K app ([2]; in the presence of salt and Orai-CMBD, pH 7.5, 0.1 M NaCl, 2 mM Ca^2+) was 3.43 ± 0.65 × 10^3 M^−1, the K app ([2]; in the presence of salt, pH 7.5, 0.1 M NaCl, 2 mM Ca^2+, apparent association constant) was 3.69 ± 0.08 × 10^3 M^−1 and the “ellipticity ratio θ220/θ209” value [3] was ~ 1.

Molecule “Orai-CMBD, 24-residue peptide corresponding to the CaM-binding domain of Orai1 (residues 68-91)” has a koff (dansyl-labeled CaM(1TnC)) of 2.44 s⁻¹, a Ka1 (first of two sequential sites) [4] of 757000 M⁻¹ and a Ka2 (second of two sequential sites) [4] of 17000 M⁻¹. For the same molecule, the dH1 (first of two sequential sites) [4] was -4.99 kcal/mol, the dH2 (second of two sequential sites) [4] was -3.33 kcal/mol and the stoichiometry N [4] was 2.

In the case of Troponin C [TnC], the “affinity for Ca^2+-ATPase” value (Ca^2+-ATPase) is listed as “very low affinity”, the “binding to / activation of nNOS” value (nNOS) is listed as “can neither bind to nor activate nNOS” and the “Ca^2+ affinity of EF4 relative to that of CaM” value [5] is listed as “one order higher”. For the same molecule, the “interaction with ANS” value [6] was “no interaction between TnC and ANS”.
